Biological target: YB-1 (Homo sapiens, UniProt P67809)
Assay: Cellular thermal shift assay (CETSA)
Assay type: binding
Parameters: endogenous in cells; host or cells: MDA-MB-231
Conditions: MDA-MB-231 cells, 1.5 h
Description: MDA-MB-231 cells treated with vehicle control (DMSO) or SU056 were analyzed by CETSA.[53] Cells were grown to 70–80% confluency and then treated with either DMSO (vehicle control) or SU056 (1 μM) for 1.5 h. Cells were then washed twice with PBS and divided into 10 PCR tubes (1 x 10^6 cells/tube in 100 μL PBS). The tubes incubated at different temperatures (37, 41, 44, 47, 50, 53, 56, 59, 63, 67°C) for 3 min in a thermal cycler, followed by 2 min at room temperature. The tubes were snap-frozen in liquid nitrogen, the cells were lysed using a freeze/thaw cycle, and the soluble and insoluble fractions were separated by centrifugation at 14,000 RPM for 30 min at 4°C. […] All samples were analyzed by LC-MS/MS in triplicate.
A Dionex Ultimate Rapid Separation Liquid Chromatography system (Thermo Fisher Scientific) was used to load 3 μL of the combined TMT-labeled peptides onto a PepMap C18 trap column (Thermo Fisher Scientific) with a flow rate set at 5 μL/min for 10 min. […] The flow rate throughout the gradient was set to 0.3 μL/min and each sample was analyzed in triplicates. Eluted peptides were analyzed using an Orbitrap Eclipse Tribrid mass spectrometer (Thermo Fisher Scientific). […] The most abundant precursor ions were subject to collision induced dissociation (CID) with a collisional energy set to […] and detected in the ion trap using Turbo scan rate. […]

O=C1OCC2=C1C(c1cccc(F)c1)c1cc3c(cc1N2CCO)OCO3 (centres unmarked) [SU056, 9-(3-fluorophenyl)-5-(2-hydroxyethyl)-6,9-dihydro-[1,3]dioxolo[4,5-g]furo[3,4-b]quinolin-8(5H)-one]
stability of translation-associated proteins (eIFs, RPL, RPS) (1 μM): increased the overall stability
ΔTm at 1 µM: 13.8 °C

Reference: article PMC11148772, “Inhibition of protein translational machinery in triple-negative breast cancer as a promising therapeutic strategy” (Cell Reports Medicine, 2024)
